# According to PMC11881035, “^68Ga-Labeled Glycopeptides as Effective Tools for Liver Function Imaging” (Molecular Pharmaceutics, 2025):
# Where two headings read alike, the source gives them in different places. Where a SMILES comes first, the peptide text is derived from it. The star is where a group is joined. X1 = O=C(CCCCc1cn([C@@H]2O[C@H](CO)[C@H](O)[C@H](O)[C@H]2O)nn1)*; NODAGA = O=C(O)CN1CCN(CC(=O)O)CCN(C(CCC(=O)*)C(=O)O)CC1; GABA = NCCCC(=O)O
# Columns and labels:
# [1] = complex stability in human blood serum; assay type: in vitro ADME
# Method: (§1) The ^68Ge/^68Ga generator, devices for analytical HPLC, semipreparative HPLC, mass spectrometry, radio-thin layer chromatography, gamma counter and animal models for biodistribution and imaging studies including the image reconstruction procedures were the same as described before.[22] Stability assays in PBS and human blood serum, protein binding as well as determination of log D values followed established protocols.[25] Binding affinities (IC50) of selected ligands were determined in an isolated receptor-based assay according to a previously published procedure with minor modifications.[22] Dilutions of nonradioactive complexes were made with PBS + 0.1% BSA (10^–5–10^–12 M). Preparation of [^125I]I-Asialoorosomucoid which serves as the radioactive standard ligand has been published recently.[21]
# [2] = log D determination; assay type: physicochemical; conditions: read-out: log D
# Method: as §1
# [3] = complex stability in PBS; assay type: physicochemical
# Method: as §1
# [4] = protein binding in human serum; assay type: in vitro ADME; conditions: for fraction unbound: human, serum, read-out: protein binding (%) (converted)
# Method: as §1
# [5] = biological target: T1, ASGR (Mus musculus, UniProt P24721+P34927); assay: blocking experiment, coinjection of N-acetylgalactosamine, biodistribution in BALB/c mice; conditions: in vivo, 30 min p.i., 27.7 μmol N-acetylgalactosamine
# T1 construct: from tissue; host or cells: liver and other organs of living healthy female BALB/c mice
# T1 sequence (P34927 1-284): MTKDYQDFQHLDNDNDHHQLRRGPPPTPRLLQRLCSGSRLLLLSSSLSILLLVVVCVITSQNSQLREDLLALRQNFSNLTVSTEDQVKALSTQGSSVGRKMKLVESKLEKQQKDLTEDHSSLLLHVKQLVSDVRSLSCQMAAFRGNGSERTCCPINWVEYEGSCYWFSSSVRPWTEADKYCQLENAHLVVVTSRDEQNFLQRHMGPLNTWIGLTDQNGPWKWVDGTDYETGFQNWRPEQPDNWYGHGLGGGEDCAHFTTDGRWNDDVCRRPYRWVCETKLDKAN
# T1 sequence (P24721 1-301): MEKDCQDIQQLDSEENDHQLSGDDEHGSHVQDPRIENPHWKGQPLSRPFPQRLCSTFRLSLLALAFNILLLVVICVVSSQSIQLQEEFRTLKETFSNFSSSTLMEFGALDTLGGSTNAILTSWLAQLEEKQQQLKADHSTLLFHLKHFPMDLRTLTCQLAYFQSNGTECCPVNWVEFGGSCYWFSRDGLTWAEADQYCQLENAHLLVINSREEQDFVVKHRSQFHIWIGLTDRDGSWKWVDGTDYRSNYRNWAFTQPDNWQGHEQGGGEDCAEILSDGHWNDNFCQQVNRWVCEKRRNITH
# Method: Less liver uptake was found for [^68Ga]Ga-NODAGA-HexaLysan (55.5 ± 7.4% ID/g, 30 min p.i.) and least for [^68Ga]Ga-NODAGA-TriLysan (9.4 ± 2.0% ID/g, 30 min p.i.). […] However, an increasing activity accumulation in the intestine was found for [^68Ga]Ga-NODAGA-NonaLysan, [^68Ga]Ga-NODAGA-GalNAc-Nonalysan, and [^68Ga]Ga-NODAGA-HexaLysan over time. Nevertheless, liver-to-organ ratios were highest for [^68Ga]Ga-NODAGA-NonaLysan (Figure 3). Lower liver-to-organ ratios were found for the GalNAc derivative due to higher off-target binding in the pancreas, stomach, heart, muscle, lung, and femur. […] Coinjection of both nonamers with a large excess of N-acetylgalactosamine led to a statistically significant reduction of liver uptake indicating specific interactions of the tracers with their target (Figure 4). As a consequence of the reduced liver uptake also a reduction of the intestinal uptake was observed.
# Figure 4 Data (% ID/g) from the blocking experiments using ^68Ga-labeled NODAGA-GalNAc-NonaLysan and NODAGA-NonaLysan in healthy BALB/c mice at 30 min p.i. Blocking was carried out using 27.7 μmol of N-acetylgalactosamine (**p ≤ 0.01; *p ≤ 0.05).
# [6] = biodistribution in healthy BALB/c mice; conditions: mouse, in vivo; for tissue uptake at 10 min: 10 min p.i.; for tissue uptake at 0.5 h: 30 min p.i.; for tissue uptake at 1 h: 60 min p.i.
# Method: as §1
# Animal experiments were performed in accordance with the Austrian animal experiments law (BGBl. I Nr. 114/2012) and the institution’s animal welfare standards as approved by the Austrian Federal Ministry of Education, Science and Research (BMBWF, 2022–0.311.708). Imaging experiments were conducted at Werner Siemens Imaging Center (Tübingen, Germany) according to the German animal welfare act as approved by the local authorities (R5/19 G, R09/21 G).
# Figure 2 Biodistribution data (% ID/g) of ^68Ga-labeled NODAGA-GalNAc-NonaLysan, NODAGA-NonaLysan, NODAGA-HexaLysan, and NODAGA-TriLysan in healthy BALB/c mice at 10, 30, and 60 min p.i. (100 pmol, 1 MBq).
compound,measurement,setting,value
"NC(=O)CNC(=O)CNC(=O)[C@H](CCCCNC(=O)CCCCc1cn([C@@H]2O[C@H](CO)[C@H](O)[C@H](O)[C@H]2O)nn1)NC(=O)CNC(=O)CNC(=O)[C@H](CCCCNC(=O)CCCCc1cn([C@@H]2O[C@H](CO)[C@H](O)[C@H](O)[C@H]2O)nn1)NC(=O)CNC(=O)CNC(=O)[C@H](CCCCNC(=O)CCCCc1cn([C@@H]2O[C@H](CO)[C@H](O)[C@H](O)[C@H]2O)nn1)NC(=O)CNC(=O)CNC(=O)[C@H](CCCCNC(=O)CCCCc1cn([C@@H]2O[C@H](CO)[C@H](O)[C@H](O)[C@H]2O)nn1)NC(=O)CNC(=O)CNC(=O)[C@H](CCCCNC(=O)CCCCc1cn([C@@H]2O[C@H](CO)[C@H](O)[C@H](O)[C@H]2O)nn1)NC(=O)CNC(=O)CNC(=O)[C@H](CCCCNC(=O)CCCCc1cn([C@@H]2O[C@H](CO)[C@H](O)[C@H](O)[C@H]2O)nn1)NC(=O)CNC(=O)CNC(=O)[C@H](CCCCNC(=O)CCCCc1cn([C@@H]2O[C@H](CO)[C@H](O)[C@H](O)[C@H]2O)nn1)NC(=O)CNC(=O)CNC(=O)[C@H](CCCCNC(=O)CCCCc1cn([C@@H]2O[C@H](CO)[C@H](O)[C@H](O)[C@H]2O)nn1)NC(=O)CNC(=O)CNC(=O)[C@H](CCCCNC(=O)CCCCc1cn([C@@H]2O[C@H](CO)[C@H](O)[C@H](O)[C@H]2O)nn1)NC(=O)CCCNC(=O)CCC(C(=O)O)N1CCN(CC(=O)O)CCN(CC(=O)O)CC1 (stereo partly shown) [[^68Ga]Ga-NODAGA-NonaLysan, metal not drawn] ({NODAGA-GABA}-K(X1)GGK(X1)GGK(X1)GGK(X1)GGK(X1)GGK(X1)GGK(X1)GGK(X1)GGK(X1)GG-NH2)",complex stability in serum (% intact ligand),[1]; 2 min,99.5 ± 0.1%
same,complex stability in serum (% intact ligand),[1]; 30 min,99.5 ± 0.1%
same,complex stability in serum (% intact ligand),[1]; 60 min,99.5 ± 0.1%
same,complex stability in serum (% intact ligand),[1]; 120 min,99.6%
same,logD,[2],-4.06
same,complex stability in PBS (% intact ligand),[3]; 2 min,99.6%
same,complex stability in PBS (% intact ligand),[3]; 30 min,99.4%
same,complex stability in PBS (% intact ligand),[3]; 60 min,99.3%
same,complex stability in PBS (% intact ligand),[3]; 120 min,99.3%
same,protein binding (%),[4]; 120 min,21.5 ± 3.4%
same,fraction unbound,[4]; 2 min,0.847
same,fraction unbound,[4]; 30 min,0.717
same,fraction unbound,[4]; 60 min,0.737
same,fraction unbound,[4]; 120 min,0.813
same,tissue uptake at 0.5 h,[5]; read-out: Blood uptake,0.3 ± 0.2 %ID/g
same,tissue uptake at 0.5 h,[5]; read-out: Femur uptake,0.2 ± 0.01 %ID/g
same,tissue uptake at 0.5 h,[5]; read-out: Heart uptake,0.3 ± 0.03 %ID/g
same,tissue uptake at 0.5 h,[5]; read-out: Intestine uptake,2.2 ± 0.2 %ID/g
same,tissue uptake at 0.5 h,[5]; read-out: Kidneys uptake,2 ± 0.8 %ID/g
same,tissue uptake at 0.5 h,[5]; read-out: Liver uptake,48 ± 1.1 %ID/g
same,tissue uptake at 0.5 h,[5]; read-out: Lung uptake,0.6 ± 0.1 %ID/g
same,tissue uptake at 0.5 h,[5]; read-out: Muscle uptake,0.4 ± 0.04 %ID/g
same,tissue uptake at 0.5 h,[5]; read-out: Pancreas uptake,0.5 ± 0.1 %ID/g
same,tissue uptake at 0.5 h,[5]; read-out: Spleen uptake,0.3 ± 0.2 %ID/g
same,tissue uptake at 0.5 h,[5]; read-out: Stomach uptake,0.9 ± 0.3 %ID/g
same,tissue uptake at 10 min,[6]; read-out: Blood uptake,0.4 ± 0.03 %ID/g
same,tissue uptake at 10 min,[6]; read-out: Femur uptake,0.3 ± 0.02 %ID/g
same,tissue uptake at 10 min,[6]; read-out: Heart uptake,0.4 ± 0.04 %ID/g
same,tissue uptake at 10 min,[6]; read-out: Intestine uptake,0.8 ± 0.2 %ID/g
same,tissue uptake at 10 min,[6]; read-out: Kidneys uptake,1.2 ± 0.1 %ID/g
same,tissue uptake at 10 min,[6]; read-out: Liver uptake,71.2 ± 0.4 %ID/g
same,tissue uptake at 10 min,[6]; read-out: Lung uptake,0.9 ± 0.1 %ID/g
same,tissue uptake at 10 min,[6]; read-out: Muscle uptake,0.6 ± 0.1 %ID/g
same,tissue uptake at 10 min,[6]; read-out: Pancreas uptake,0.8 ± 0.1 %ID/g
same,tissue uptake at 10 min,[6]; read-out: Spleen uptake,0.6 ± 0.2 %ID/g
same,tissue uptake at 10 min,[6]; read-out: Stomach uptake,0.7 ± 0.2 %ID/g
same,tissue uptake at 0.5 h,[6]; read-out: Blood uptake,0.2 ± 0.04 %ID/g
same,tissue uptake at 0.5 h,[6]; read-out: Femur uptake,0.3 ± 0.1 %ID/g
same,tissue uptake at 0.5 h,[6]; read-out: Heart uptake,0.4 ± 0.04 %ID/g
same,tissue uptake at 0.5 h,[6]; read-out: Intestine uptake,5.6 ± 0.2 %ID/g
same,tissue uptake at 0.5 h,[6]; read-out: Kidneys uptake,0.8 ± 0.03 %ID/g
same,tissue uptake at 0.5 h,[6]; read-out: Liver uptake,79.6 ± 8 %ID/g
same,tissue uptake at 0.5 h,[6]; read-out: Lung uptake,0.7 ± 0.1 %ID/g
same,tissue uptake at 0.5 h,[6]; read-out: Muscle uptake,0.7 ± 0.03 %ID/g
same,tissue uptake at 0.5 h,[6]; read-out: Pancreas uptake,0.9 ± 0.1 %ID/g
same,tissue uptake at 0.5 h,[6]; read-out: Spleen uptake,0.2 ± 0.03 %ID/g
same,tissue uptake at 0.5 h,[6]; read-out: Stomach uptake,1.2 ± 0.4 %ID/g
same,tissue uptake at 1 h,[6]; read-out: Blood uptake,0.2 ± 0.1 %ID/g
same,tissue uptake at 1 h,[6]; read-out: Femur uptake,0.2 ± 0.01 %ID/g
same,tissue uptake at 1 h,[6]; read-out: Heart uptake,0.5 ± 0.1 %ID/g
same,tissue uptake at 1 h,[6]; read-out: Intestine uptake,7.9 ± 0.5 %ID/g
same,tissue uptake at 1 h,[6]; read-out: Kidneys uptake,1 ± 0.2 %ID/g
same,tissue uptake at 1 h,[6]; read-out: Liver uptake,69.6 ± 1 %ID/g
same,tissue uptake at 1 h,[6]; read-out: Lung uptake,0.9 ± 0.1 %ID/g
same,tissue uptake at 1 h,[6]; read-out: Muscle uptake,0.6 ± 0.1 %ID/g
same,tissue uptake at 1 h,[6]; read-out: Pancreas uptake,1.2 ± 0.2 %ID/g
same,tissue uptake at 1 h,[6]; read-out: Spleen uptake,0.5 ± 0.03 %ID/g
same,tissue uptake at 1 h,[6]; read-out: Stomach uptake,1.8 ± 1 %ID/g
